Source: patent US20040067167A1, “Methods and apparatus for optophoretic diagnosis of cells and particles” (Genoptix, Inc., priority 2002, published 2004)

Tests used:
T cells = experiment: Time-of-flight (TOF) optophoretic testing of activated and unactivated T cells; type: cell-based; conditions: T cells activated with 0.5 μml PMA and 50 ng/ml ionomycin together, overnight, compared to unstimulated T cells (FIG. 46)
From the text: (§1) The system includes multiple, preferably three, detecting positions, 31, 32 and 33. The detecting positions 31, 32, 33, may be associated with detection of times, e.g., t1, t2, t3. The times may be absolute, relative or elapsed. The two outermost detecting positions, i.e., 31 and 33 in this example, are separated by a distance L. A representative length L when detecting biological particles would be substantially 200 microns or less. The difference between the first two detecting positions t1, t2, define a time interval T1. T1 may also be associated with a first detection zone corresponding to the motion of the particle 36 through the zone T1. The second and third detecting positions t2, t3, define a second detection zone T2. The second detection zone also corresponds to the time difference between t2, t3. In one preferred embodiment, the distance between t2 t3 is equal to the distance between t1 t2.
In operation, the cell or particle 36 flows from the inlet 22 through the channel 20 through the outlet 24. For biological detection purposes, representative particle speeds are from substantially 50 to substantially 200 microns per second. As the cell or particle 36 flows through the first detection zone T1, the time-of-flight through that zone is measured, that is the time it takes for the cell or particle 36 to move from position t1 to t2. An optical gradient 38 is disposed within zone T2. […]

HL60 cells = experiment: Time-of-flight (TOF) optophoretic testing of HL60 cells treated with DMSO; type: cell-based; conditions: 1% DMSO, after 40 hours of treatment, compared to non-treated HL60 cells (FIGS. 44 and 45)
From the text: as §1, with “t2. In operation, the cell or particle 36 flows from the inlet 22 through the channel 20 through the outlet 24. For biological detection purposes, representative particle speeds are from substantially 50 to substantially 200 microns per second. As the cell or particle 36 flows through the first detection zone T1, the time-of-flight through that zone is measured, that is the time it takes for the cell or particle 36 to move from position t1 to t2. An optical gradient 38 is disposed within zone T2. […]” for “t2.”

C[C@H](CCC(=O)O)C[C@H](C)C[C@H](C)C(=O)/C=C(\O)[C@H](C)C[C@H](C)C/C=C/[C@@H](C)[C@@H](O)[C@@H](C)[C@@H](O)C[C@@H]1CC[C@@](C)([C@H]2CC[C@@](C)([C@@H](C)O)O2)O1 [ionomycin]
TOF ratio t2/t1 (T cells): lower TOF ratio

C[S+](C)[O-] [DMSO, dimethyl sulfoxide]
TOF ratio t2/t1 (HL60 cells): lower TOF ratio

CCCCCCCCCCCCCC(=O)O[C@@H]1[C@@H](C)[C@@]2(O)[C@@H](C=C(CO)C[C@]3(O)C(=O)C(C)=C[C@@H]23)[C@@H]2C(C)(C)[C@]12OC(C)=O [PMA, Phorbol mystirate acetate]
TOF ratio t2/t1 (T cells): lower TOF ratio
